{
  "source": "patent US9486506B2",
  "about": "(Novo Nordisk A/S, priority 2011, dated 2016)",
  "note": "pEC50: −log10 of the molar value. Numbered stars: 1 amine (or outer) side, 2 acyl side, 3 side chain; on linkers, the order of the positions; unused ones are H or OH. Side chains are listed from the residue outwards. Peptide text beside a SMILES is read from it. * marks the point of attachment. C18 diacid = O=C(O)CCCCCCCCCCCCCCCCC(=O)*; C16 diacid = O=C(O)CCCCCCCCCCCCCCC(=O)*; γGlu = O=C(O)[C@H](CCC(=O)[*:2])N[*:1]; AEEA = NCCOCCOCC(=O)O",
  "data": [
    {"target": "T1, glucagon receptor (Homo sapiens, UniProt P47871)", "T1 construct": "expressed in transfected cells", "T1 sequence (P47871 26-477)": "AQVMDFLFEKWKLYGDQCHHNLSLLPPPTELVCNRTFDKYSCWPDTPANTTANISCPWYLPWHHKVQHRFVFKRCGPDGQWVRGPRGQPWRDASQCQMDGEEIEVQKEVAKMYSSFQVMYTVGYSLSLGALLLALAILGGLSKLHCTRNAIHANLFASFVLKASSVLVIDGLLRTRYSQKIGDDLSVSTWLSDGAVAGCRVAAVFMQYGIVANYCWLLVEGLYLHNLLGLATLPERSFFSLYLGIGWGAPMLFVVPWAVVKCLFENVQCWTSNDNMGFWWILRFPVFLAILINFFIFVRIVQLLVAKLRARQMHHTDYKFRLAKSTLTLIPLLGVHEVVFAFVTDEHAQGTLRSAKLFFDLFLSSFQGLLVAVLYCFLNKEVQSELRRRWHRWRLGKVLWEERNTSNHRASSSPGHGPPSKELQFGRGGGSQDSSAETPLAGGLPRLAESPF", "assay": "Assay (I) Glucagon activity (cAMP biosensor, FLIPR)", "assay_type": "cell-based", "values": [
      {"smiles": "CC(C)C[C@H](NC(=O)[C@H](Cc1c[nH]c2ccccc12)NC(=O)[C@H](CCCCNC(=O)CC[C@H](NC(=O)CC[C@H](NC(=O)COCCOCCNC(=O)COCCOCCNC(=O)CC[C@H](NC(=O)CCCCCCCCCCCCCCC(=O)O)C(=O)O)C(=O)O)C(=O)O)NC(=O)[C@@H](NC(=O)[C@H](Cc1ccccc1)NC(=O)[C@H](CC(=O)O)NC(=O)[C@H](CCC(N)=O)NC(=O)[C@H](C)NC(=O)[C@H](CCCNC(=N)N)NC(=O)[C@H](CCCNC(=N)N)NC(=O)[C@@H](NC(=O)[C@H](CC(=O)O)NC(=O)[C@H](CC(C)C)NC(=O)[C@H](Cc1ccc(O)cc1)NC(=O)[C@H](CCCCN)NC(=O)[C@H](CO)NC(=O)[C@H](Cc1ccc(O)cc1)NC(=O)[C@H](CC(=O)O)NC(=O)[C@H](CO)NC(=O)[C@@H](NC(=O)[C@H](Cc1ccccc1)NC(=O)[C@@H](NC(=O)CNC(=O)[C@H](CCC(N)=O)NC(=O)[C@H](CO)NC(=O)[C@@H](N)Cc1c[nH]cn1)[C@@H](C)O)[C@@H](C)O)[C@@H](C)O)C(C)C)C(=O)N[C@@H](CC(C)C)C(=O)N[C@@H](CO)C(=O)N[C@H](C(=O)O)[C@@H](C)O", "note": "[Example 81, N^ε24-[(4S)-4-carboxy-4-[[(4S)-4-carboxy-4-[[2-[2-[2-[[2-[2-[2-[[(4S)-4-carboxy-4-(15-carboxypentadecanoylamino)butanoyl]amino]ethoxy]ethoxy]acetyl]amino]ethoxy]ethoxy]acetyl]amino]butanoyl]amino]butanoyl]-[Thr16,Lys24,Leu27,Ser28]-Glucagon]", "pEC50": 10.77},
      {"smiles": "CC(C)C[C@H](NC(=O)[C@H](CC(=O)O)NC(=O)[C@H](CC(C)C)NC(=O)[C@H](Cc1ccc(O)cc1)NC(=O)[C@H](CCCNC(=N)N)NC(=O)[C@H](CO)NC(=O)[C@H](Cc1ccc(O)cc1)NC(=O)[C@H](CC(=O)O)NC(=O)[C@H](CO)NC(=O)[C@@H](NC(=O)[C@H](Cc1ccccc1)NC(=O)[C@@H](NC(=O)CNC(=O)[C@H](CCC(N)=O)NC(=O)[C@H](CO)NC(=O)[C@@H](N)Cc1c[nH]cn1)[C@@H](C)O)[C@@H](C)O)C(=O)N[C@@H](CCCNC(=N)N)C(=O)N[C@@H](CCCNC(=N)N)C(=O)N[C@@H](C)C(=O)N[C@@H](CCC(N)=O)C(=O)N[C@@H](CC(=O)O)C(=O)N[C@@H](Cc1ccccc1)C(=O)N[C@H](C(=O)N[C@@H](CCCCNC(=O)CC[C@H](NC(=O)CC[C@H](NC(=O)CC[C@H](NC(=O)CC[C@H](NC(=O)CCCCCCCCCCCCCCC(=O)O)C(=O)O)C(=O)O)C(=O)O)C(=O)O)C(=O)N[C@@H](Cc1c[nH]c2ccccc12)C(=O)N[C@@H](CC(C)C)C(=O)N[C@@H](CC(C)C)C(=O)N[C@@H](CO)C(=O)N[C@H](C(=O)O)[C@@H](C)O)C(C)C", "note": "[Example 74, N^ε24-[(4S)-4-carboxy-4-[[(4S)-4-carboxy-4-[[(4S)-4-carboxy-4-[[(4S)-4-carboxy-4-(15-carboxypentadecanoylamino)butanoyl]amino]butanoyl]amino]butanoyl]amino]butanoyl]-[Arg12,Leu16,Lys24,Leu27,Ser28]-Glucagon] (H-HSQGTFTSDYSRYLDLRRAQDFVK([γGlu-γGlu-γGlu-γGlu-C16 diacid])WLLST-OH)", "pEC50": 9.96},
      {"smiles": "CC[C@H](C)[C@H](NC(=O)[C@H](CC(N)=O)NC(=O)[C@H](CC(C)C)NC(=O)[C@H](CC(C)C)NC(=O)[C@H](Cc1c[nH]c2ccccc12)NC(=O)[C@H](CCCCNC(=O)CC[C@H](NC(=O)COCCOCCNC(=O)COCCOCCNC(=O)CC[C@H](NC(=O)CCCCCCCCCCCCCCCCC(=O)O)C(=O)O)C(=O)O)NC(=O)[C@@H](NC(=O)[C@H](Cc1ccccc1)NC(=O)[C@H](CC(=O)O)NC(=O)[C@H](CCC(N)=O)NC(=O)[C@H](C)NC(=O)[C@H](CCCNC(=N)N)NC(=O)[C@H](CCCNC(=N)N)NC(=O)[C@H](CO)NC(=O)[C@H](CCC(=O)O)NC(=O)[C@H](CC(C)C)NC(=O)[C@H](Cc1ccc(O)cc1)NC(=O)[C@H](CCCCN)NC(=O)[C@H](CO)NC(=O)[C@H](Cc1ccc(O)cc1)NC(=O)[C@H](CC(=O)O)NC(=O)[C@H](CO)NC(=O)[C@@H](NC(=O)[C@H](Cc1ccccc1)NC(=O)[C@@H](NC(=O)CNC(=O)[C@H](CCC(N)=O)NC(=O)[C@H](CO)NC(=O)[C@@H](N)Cc1c[nH]cn1)[C@@H](C)O)[C@@H](C)O)C(C)C)C(=O)O", "note": "[Example 32, N^ε24-[(4S)-4-carboxy-4-[[2-[2-[2-[[2-[2-[2-[[(4S)-4-carboxy-4-(17-carboxyheptadecanoylamino)butanoyl]amino]ethoxy]ethoxy]acetyl]amino]ethoxy]ethoxy]acetyl]amino]butanoyl]-[Glu15,Lys24,Leu27,Ile29]-Glucagon]", "pEC50": 8.95},
      {"smiles": "CC(C)C[C@H](NC(=O)[C@H](Cc1ccc(O)cc1)NC(=O)[C@H](CCCNC(=N)N)NC(=O)[C@H](CO)NC(=O)[C@@H](NC(=O)[C@H](CC(=O)O)NC(=O)[C@H](CO)NC(=O)[C@@H](NC(=O)[C@H](Cc1ccccc1)NC(=O)[C@@H](NC(=O)CNC(=O)[C@H](CCC(N)=O)NC(=O)[C@H](CO)NC(=O)[C@@H](N)Cc1c[nH]cn1)[C@@H](C)O)[C@@H](C)O)C(C)C)C(=O)N[C@@H](CCC(=O)O)C(=O)N[C@@H](CO)C(=O)N[C@@H](CCCNC(=N)N)C(=O)N[C@@H](CCCNC(=N)N)C(=O)N[C@@H](C)C(=O)N[C@@H](CCC(N)=O)C(=O)N[C@@H](CCC(=O)O)C(=O)N[C@@H](Cc1ccccc1)C(=O)N[C@H](C(=O)N[C@@H](CCCCNC(=O)CC[C@H](NC(=O)CC[C@H](NC(=O)COCCOCCNC(=O)COCCOCCNC(=O)CC[C@H](NC(=O)CCCCCCCCCCCCCCCCC(=O)O)C(=O)O)C(=O)O)C(=O)O)C(=O)N[C@@H](Cc1c[nH]c2ccccc12)C(=O)N[C@@H](CC(C)C)C(=O)N[C@@H](CCC(=O)O)C(=O)N[C@@H](CO)C(=O)N[C@H](C(=O)O)[C@@H](C)O)C(C)C", "note": "[Example 54, N^ε24-[(4S)-4-carboxy-4-[[(4S)-4-carboxy-4-[[2-[2-[2-[[2-[2-[2-[[(4S)-4-carboxy-4-(17-carboxyheptadecanoylamino)butanoyl]amino]ethoxy]ethoxy]acetyl]amino]ethoxy]ethoxy]acetyl]amino]butanoyl]amino]butanoyl]-[Val10,Arg12,Glu15,Glu21,Lys24,Glu27,Ser28]-Glucagon] (H-HSQGTFTSDVSRYLESRRAQEFVK([γGlu-γGlu-AEEA-AEEA-γGlu-C18 diacid])WLEST-OH)", "pEC50": 8.79},
      {"smiles": "CC(C)C[C@H](NC(=O)[C@H](Cc1ccc(O)cc1)NC(=O)[C@H](CCCCN)NC(=O)[C@H](CO)NC(=O)[C@H](Cc1ccc(O)cc1)NC(=O)[C@H](CC(=O)O)NC(=O)[C@H](CO)NC(=O)[C@@H](NC(=O)[C@H](Cc1ccccc1)NC(=O)[C@@H](NC(=O)CNC(=O)[C@H](CCC(N)=O)NC(=O)[C@H](CO)NC(=O)[C@@H](N)Cc1c[nH]cn1)[C@@H](C)O)[C@@H](C)O)C(=O)N[C@@H](CCC(=O)O)C(=O)N[C@@H](CO)C(=O)N[C@@H](CCCNC(=N)N)C(=O)N[C@@H](CCCNC(=N)N)C(=O)N[C@@H](C)C(=O)N[C@@H](CCC(N)=O)C(=O)N[C@@H](CC(=O)O)C(=O)N[C@@H](Cc1ccccc1)C(=O)N[C@H](C(=O)N[C@@H](CCCCNC(=O)CC[C@H](NC(=O)COCCOCCNC(=O)COCCOCCNC(=O)CC[C@H](NC(=O)CCCCCCCCCCCCCCCCC(=O)O)C(=O)O)C(=O)O)C(=O)N[C@@H](Cc1c[nH]c2ccccc12)C(=O)N[C@@H](CC(C)C)C(=O)N[C@@H](CC(C)C)C(=O)N[C@@H](CC(N)=O)C(=O)N[C@H](C(=O)O)C(C)C)C(C)C", "note": "[Example 33, N^ε24-[(4S)-4-carboxy-4-[[2-[2-[2-[[2-[2-[2-[[(4S)-4-carboxy-4-(17-carboxyheptadecanoylamino)butanoyl]amino]ethoxy]ethoxy]acetyl]amino]ethoxy]ethoxy]acetyl]amino]butanoyl]-[Glu15,Lys24,Leu27,Val29]-Glucagon]", "pEC50": 9.04}
    ]}
  ]
}
